From patent publication US9808466B2, “Macrocyclic compounds as protein kinase inhibitors” (Fundación Centro Nacional de Investigaciones Oncologicas …, priority 2011, dated 2017)
Where two headings read alike, the source gives them in different places.

Tests used:
[1] = target: T1, PIM-1 (Homo sapiens, UniProt P11309); test: PIM-1 biochemical assay (ADP Hunter)
T1 construct: histidine tag (C); made in house
In short: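 Recombinant His-tagged human PIM-1 (50 pg/μl) with PIMtide peptide (60 μM) and 100 μM ATP in HEPES pH 7.4 buffer with MgCl2, 60 min at 30° C, DMSO below 2%. ADP formed detected by coupled ADP Hunter reaction as resorufin fluorescence (Ex 544/Em 580 nm).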

[2] = target: T2, PI3K (p110α/p85α) (Homo sapiens, UniProt P42336); test: PI3K activity assay (ADP Hunter Plus); assay type: biochemical
T2 construct: purchased Carna Biosciences 07CBS-0402A
In short: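 ADP accumulation measured by coupled fluorescence (ex 544/em 580 nm) after a 1 h kinase reaction at 25 °C, then 30 min at 37 °C with detection reagents. Activity normalised to no-compound control (100%) and IC50 from sigmoid dose-response fit.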

[3] = target: T3, mTOR (Homo sapiens, UniProt P42345); test: mTOR assay (LanthaScreen kinase activity assay); assay type: biochemical
T3 construct: purchased Invitrogen PV4754

[4] = Pharmacokinetic in BALB-c female mice, i.v. and oral; assay type: in vivo; conditions: for AUC(0-inf) / half-life / clearance / MRT / Vd / bioavailability / Cmax: mouse; for half-life: read-out: T½ last (plasmatic half life) (converted); for clearance: read-out: Cl (plasmatic clearance) (converted); for MRT: read-out: MRT (Mean residence time); for Vd: read-out: Vd (volume of distribution); for bioavailability: read-out: F % (bioavailability); for Cmax: read-out: C max (maximum plasma concentration after oral administration)
Description: Experiments were done using BALB-c female mice, 10 weeks old. Compounds were dissolved in selected vehicles at a concentration calculated in order to administer the dose selected in 0.1 mL. Animals were administered by i.v and oral route (by gavage), and sacrificed at different time points (n=3 at each time point). Time points were 0.08, 0.25, 0.5, 1, 4 and 8 h for the i.v branch, and 0.08, 0.16, 0.25, 0.5, 1, 4, 8 and 24 h for oral branch. Blood was collected and processed for plasma which was analyzed and quantified by means of tandem mass spectrometry coupled with liquid chromatography. Pharmacokinetic parameters were estimated by fitting the experimental data to a compartmental model using Winnonlin software for pharmacokinetic analysis.

[5] = PIM1, read-out: PIM-1 activity, IC50 (semi-quantitative class)
[6] = read-out: PI3K alpha activity, IC50 (semi-quantitative class)
[7] = read-out: PI3K alpha actual IC50 (in parentheses)
[8] = read-out: mTOR activity, IC50 (semi-quantitative class)
[9] = iv, I.V, dose 5.00 mg/Kg, plasma
[10] = plasma, iv, I.V, dose 5.00 mg/Kg
[11] = plasma, po, P.O dose 10.00 mg/Kg vs I.V 5.00 mg/Kg
[12] = po, P.O, dose 10.00 mg/Kg, plasma
[13] = read-out: mTOR actual IC50 (in parentheses)
[14] = iv, I.V, dose 1.00 mg/Kg, plasma
[15] = plasma, iv, I.V, dose 1.00 mg/Kg
[16] = po, P.O, dose 3.00 mg/Kg, plasma
[17] = read-out: PIM-1 activity (semi-quantitative IC50)
[18] = read-out: PI3K alpha IC50 (in parentheses)
[19] = read-out: PI3K alpha activity (semi-quantitative IC50)
[20] = read-out: mTOR activity (semi-quantitative IC50)
[21] = read-out: PIM-1 IC50 (in parentheses)

T3 sequence (P42345 1360-2549 limits assumed): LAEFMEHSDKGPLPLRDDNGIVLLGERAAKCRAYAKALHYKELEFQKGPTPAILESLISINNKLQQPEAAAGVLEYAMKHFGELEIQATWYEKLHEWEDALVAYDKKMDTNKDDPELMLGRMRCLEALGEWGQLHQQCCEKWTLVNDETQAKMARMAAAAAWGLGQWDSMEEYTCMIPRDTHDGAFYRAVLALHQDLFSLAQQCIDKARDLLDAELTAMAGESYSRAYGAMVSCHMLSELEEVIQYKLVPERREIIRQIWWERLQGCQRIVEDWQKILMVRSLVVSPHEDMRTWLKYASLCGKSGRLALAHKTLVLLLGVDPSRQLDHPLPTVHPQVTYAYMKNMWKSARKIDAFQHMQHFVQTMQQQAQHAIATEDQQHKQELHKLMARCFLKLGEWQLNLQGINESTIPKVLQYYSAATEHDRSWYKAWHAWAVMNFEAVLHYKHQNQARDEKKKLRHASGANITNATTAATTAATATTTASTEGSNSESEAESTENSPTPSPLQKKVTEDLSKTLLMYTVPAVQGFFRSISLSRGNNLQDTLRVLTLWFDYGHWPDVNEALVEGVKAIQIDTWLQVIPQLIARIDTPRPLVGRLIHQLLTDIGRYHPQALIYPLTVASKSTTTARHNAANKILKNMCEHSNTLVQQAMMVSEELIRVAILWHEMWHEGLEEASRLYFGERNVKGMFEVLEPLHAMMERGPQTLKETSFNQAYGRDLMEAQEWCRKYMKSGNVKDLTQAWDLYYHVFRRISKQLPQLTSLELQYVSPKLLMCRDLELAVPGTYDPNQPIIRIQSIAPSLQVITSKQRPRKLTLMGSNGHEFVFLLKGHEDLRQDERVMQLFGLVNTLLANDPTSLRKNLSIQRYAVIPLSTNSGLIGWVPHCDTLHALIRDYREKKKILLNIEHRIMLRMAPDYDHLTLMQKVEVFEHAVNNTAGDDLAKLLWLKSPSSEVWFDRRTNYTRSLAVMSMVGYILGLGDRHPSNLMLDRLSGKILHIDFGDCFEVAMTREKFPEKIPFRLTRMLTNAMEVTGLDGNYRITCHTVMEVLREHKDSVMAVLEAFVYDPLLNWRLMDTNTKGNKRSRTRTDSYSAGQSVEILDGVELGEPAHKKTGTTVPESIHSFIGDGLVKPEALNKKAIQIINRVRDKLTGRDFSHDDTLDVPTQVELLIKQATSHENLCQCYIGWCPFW
T1 sequence (P11309 whole entry): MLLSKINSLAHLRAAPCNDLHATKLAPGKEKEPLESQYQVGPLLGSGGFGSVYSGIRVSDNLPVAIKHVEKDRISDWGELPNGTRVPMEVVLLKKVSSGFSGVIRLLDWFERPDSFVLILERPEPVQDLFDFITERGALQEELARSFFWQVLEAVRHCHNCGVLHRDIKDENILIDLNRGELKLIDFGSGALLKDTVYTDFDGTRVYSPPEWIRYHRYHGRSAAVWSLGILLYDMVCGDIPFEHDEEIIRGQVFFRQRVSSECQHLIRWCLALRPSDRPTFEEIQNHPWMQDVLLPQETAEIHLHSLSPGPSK
T2 sequence (P42336 whole entry): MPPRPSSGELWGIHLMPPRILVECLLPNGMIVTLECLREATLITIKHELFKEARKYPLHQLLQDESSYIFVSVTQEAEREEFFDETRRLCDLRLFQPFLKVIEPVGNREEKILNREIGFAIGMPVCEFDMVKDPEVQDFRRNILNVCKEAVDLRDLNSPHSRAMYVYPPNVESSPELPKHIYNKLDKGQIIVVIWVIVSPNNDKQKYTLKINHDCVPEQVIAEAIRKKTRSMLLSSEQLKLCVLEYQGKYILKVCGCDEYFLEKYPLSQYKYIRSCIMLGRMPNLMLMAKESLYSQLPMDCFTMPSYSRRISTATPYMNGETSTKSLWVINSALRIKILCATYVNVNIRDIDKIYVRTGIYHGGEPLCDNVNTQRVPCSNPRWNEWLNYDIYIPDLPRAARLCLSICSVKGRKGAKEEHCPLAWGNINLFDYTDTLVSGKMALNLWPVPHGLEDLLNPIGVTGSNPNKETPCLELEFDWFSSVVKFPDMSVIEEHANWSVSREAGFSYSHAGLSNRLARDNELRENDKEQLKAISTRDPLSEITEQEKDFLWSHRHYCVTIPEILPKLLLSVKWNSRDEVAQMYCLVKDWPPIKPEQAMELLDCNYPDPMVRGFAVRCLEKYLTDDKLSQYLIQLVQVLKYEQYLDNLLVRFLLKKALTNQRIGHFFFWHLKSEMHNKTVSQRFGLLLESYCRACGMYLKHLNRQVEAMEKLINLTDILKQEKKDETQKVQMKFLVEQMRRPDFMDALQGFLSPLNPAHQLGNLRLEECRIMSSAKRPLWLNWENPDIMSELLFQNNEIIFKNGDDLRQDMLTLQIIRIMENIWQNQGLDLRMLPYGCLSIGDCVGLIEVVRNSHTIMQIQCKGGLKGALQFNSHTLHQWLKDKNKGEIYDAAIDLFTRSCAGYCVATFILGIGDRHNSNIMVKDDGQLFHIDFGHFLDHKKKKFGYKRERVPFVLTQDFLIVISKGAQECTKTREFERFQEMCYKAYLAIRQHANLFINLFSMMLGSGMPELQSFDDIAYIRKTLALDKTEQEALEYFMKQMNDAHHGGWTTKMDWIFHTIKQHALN
T2 sequence (P27986 whole entry partner): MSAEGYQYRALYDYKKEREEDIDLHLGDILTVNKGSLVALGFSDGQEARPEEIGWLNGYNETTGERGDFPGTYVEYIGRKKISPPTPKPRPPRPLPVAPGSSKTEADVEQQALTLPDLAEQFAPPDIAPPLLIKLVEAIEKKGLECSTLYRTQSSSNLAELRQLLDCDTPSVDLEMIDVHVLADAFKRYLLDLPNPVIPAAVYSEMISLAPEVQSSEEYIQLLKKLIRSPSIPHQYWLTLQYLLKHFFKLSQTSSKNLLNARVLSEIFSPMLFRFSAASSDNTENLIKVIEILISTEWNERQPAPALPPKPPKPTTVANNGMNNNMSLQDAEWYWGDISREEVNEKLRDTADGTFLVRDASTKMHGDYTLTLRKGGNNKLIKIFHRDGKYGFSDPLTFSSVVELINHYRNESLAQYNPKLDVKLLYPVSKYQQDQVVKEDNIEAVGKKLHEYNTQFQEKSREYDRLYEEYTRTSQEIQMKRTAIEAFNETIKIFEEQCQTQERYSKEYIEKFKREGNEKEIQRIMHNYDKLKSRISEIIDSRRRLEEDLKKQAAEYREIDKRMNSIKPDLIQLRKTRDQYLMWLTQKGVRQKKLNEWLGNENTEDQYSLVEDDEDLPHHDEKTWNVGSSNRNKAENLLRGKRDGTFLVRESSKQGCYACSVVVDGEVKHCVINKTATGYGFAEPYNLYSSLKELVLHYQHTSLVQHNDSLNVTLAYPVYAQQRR

Structure (SMILES): COc1ncc2cc1NS(=O)(=O)c1cccc(c1)C(=O)NCc1cccc(c1)-c1ccnc3ccc-2cc13 [compound 3]
- IC50 [1, 5]: > 1000 nM
- IC50 [2, 6]: < 100 nM
- IC50 [2, 7]: 1.6 nM
- IC50 [3, 8]: 100 to 1000 nM
- AUC(0-inf) [4, 9]: 23700 ng·h/mL
- half-life [4, 9]: 1.41 h
- clearance [4, 10]: 6 mL/min/kg
- MRT [4, 10]: 1.27 h
- Vd [4, 10]: 0.46 L/kg
- bioavailability [4, 11]: 101%
- AUC(0-inf) [4, 12]: 48100 ng·h/mL
- Cmax [4, 12]: 12400 ng/mL

Structure (SMILES): COc1ncc2cc1NS(=O)(=O)c1cc(c(F)cc1F)C(=O)NCc1cncc(c1)-c1ccnc3ccc-2cc13 [compound 10]
- IC50 [1, 5]: > 1000 nM
- IC50 [2, 6]: < 100 nM
- IC50 [2, 7]: 0.03 nM
- IC50 [3, 8]: < 100 nM
- IC50 [3, 13]: 22 nM
- Cl (plasmatic clearance) ([4]; I.V, dose 5.00 mg/Kg): 8.83 mL/min/kg
- AUC inf ([4]; I.V, dose 5.00 mg/Kg, plasma): 9467.60 ng·h/mL
- T½ last (plasmatic half life) ([4]; I.V, dose 5.00 mg/Kg, plasma): 0.57 h
- MRT [4, 10]: 0.53 h
- Vd [4, 10]: 0.28 L/kg
- bioavailability [4, 11]: 39.9%
- AUC(0-inf) [4, 12]: 7560 ng·h/mL
- Cmax [4, 12]: 3390 ng/mL

Structure (SMILES): COc1ncc2cc1NS(=O)(=O)c1cccc(c1)C(=O)NCc1cccc(c1)-c1cnn3ccc-2nc13 [compound 16]
- IC50 [1, 5]: > 1000 nM
- IC50 [2, 6]: < 100 nM
- IC50 [2, 7]: 0.9 nM
- IC50 [3, 8]: < 100 nM
- IC50 [3, 13]: 4 nM
- AUC(0-inf) [4, 9]: 23600 ng·h/mL
- half-life [4, 9]: 2.23 h
- clearance [4, 10]: 4.5 mL/min/kg
- MRT [4, 10]: 3.33 h
- Vd [4, 10]: 0.99 L/kg
- bioavailability [4, 11]: 123%
- AUC(0-inf) [4, 12]: 29200 ng·h/mL
- Cmax [4, 12]: 4820 ng/mL

Structure (SMILES): COc1ncc2cc1NS(=O)(=O)c1cccc(c1)C(=O)NCc1cccc(c1)-c1ncnc3ccc-2cc13 [compound 22]
- IC50 [1, 5]: > 1000 nM
- IC50 [2, 6]: < 100 nM
- IC50 [2, 7]: 0.1 nM
- AUC(0-inf) [4, 9]: 66900 ng·h/mL
- half-life [4, 9]: 3.42 h
- clearance [4, 10]: 1.17 mL/min/kg
- MRT [4, 10]: 4.94 h
- Vd [4, 10]: 0.37 L/kg
- bioavailability [4, 11]: 33.5%
- AUC(0-inf) [4, 12]: 44800 ng·h/mL
- Cmax [4, 12]: 15000 ng/mL

Structure (SMILES): COc1ncc2cc1NS(=O)(=O)c1cccc(c1)C(=O)NCc1cncc(c1)-c1ccnc3ccc-2nc13 [compound 31]
- IC50 [1, 5]: > 1000 nM
- IC50 [2, 6]: < 100 nM
- IC50 [2, 7]: 2 nM
- IC50 [3, 8]: < 100 nM
- IC50 [3, 13]: 23 nM
- AUC(0-inf) [4, 9]: 8930 ng·h/mL
- half-life [4, 9]: 0.39 h
- clearance [4, 10]: 11.5 mL/min/kg
- MRT [4, 10]: 0.81 h
- Vd [4, 10]: 0.56 L/kg
- bioavailability [4, 11]: 34%
- AUC(0-inf) [4, 12]: 6080 ng·h/mL
- Cmax [4, 12]: 1640 ng/mL

Structure (SMILES): COc1ncc2cc1NS(=O)(=O)c1cccc(c1)C(=O)NCCn1cc(cn1)-c1ncnc3ccc-2cc13 [compound 33]
- IC50 [1, 5]: > 1000 nM
- IC50 [2, 6]: < 100 nM
- IC50 [2, 7]: 1.3 nM
- IC50 [3, 8]: < 100 nM
- IC50 [3, 13]: 4.8 nM
- AUC(0-inf) [4, 9]: 9160 ng·h/mL
- half-life [4, 9]: 2.91 h
- clearance [4, 10]: 10 mL/min/kg
- MRT [4, 10]: 1.87 h
- Vd [4, 10]: 1.12 L/kg
- bioavailability [4, 11]: 48.1%
- AUC(0-inf) [4, 12]: 8810 ng·h/mL
- Cmax [4, 12]: 1270 ng/mL

Structure (SMILES): COc1ncc2cc1NS(=O)(=O)c1cccc(c1)C(=O)N1CCc3ccc(cc3C1)-c1ccnc3ccc-2cc13 [compound 39]
- IC50 [1, 5]: > 1000 nM
- IC50 [2, 6]: < 100 nM
- IC50 [2, 7]: 0.05 nM
- IC50 [3, 8]: < 100 nM
- IC50 [3, 13]: 0.3 nM
- AUC(0-inf) [4, 14]: 4460 ng·h/mL
- half-life [4, 14]: 1.66 h
- clearance [4, 15]: 4.17 mL/min/kg
- MRT [4, 15]: 2.39 h
- Vd [4, 15]: 0.59 L/kg
- bioavailability ([4]; plasma, po, P.O dose 3.00 mg/Kg vs I.V 1.00 mg/Kg): 26.8%
- AUC(0-inf) [4, 16]: 3580 ng·h/mL
- Cmax [4, 16]: 962 ng/mL

Structure (SMILES): COc1ncc2cc1NS(=O)(=O)c1cccc(c1)C(=O)NCC1=CC=C(S1)c1ncnc3c1SC2=C3C [compound 68]
- IC50 [1, 5]: < 100 nM
- IC50 ([1]; PIM1, read-out: PIM-1 actual IC50 (in parentheses)): 28 nM
- IC50 [2, 6]: < 100 nM
- IC50 [2, 7]: 2.5 nM
- IC50 [3, 8]: < 100 nM
- IC50 [3, 13]: 90 nM
- AUC(0-inf) [4, 9]: 16600 ng·h/mL
- half-life [4, 9]: 3.15 h
- clearance [4, 10]: 0.667 mL/min/kg
- MRT [4, 10]: 10.9 h
- Vd [4, 10]: 0.49 L/kg
- bioavailability [4, 11]: 34.5%
- AUC(0-inf) [4, 12]: 57300 ng·h/mL
- Cmax [4, 12]: 2930 ng/mL

Structure (SMILES): COCCOc1ccc2cc1C(=O)NCC1=CC=C(S1)c1ncnc3c1SC(=C3C)c1cnc(OC)c(c1)NS2(=O)=O [compound 95]
- IC50 [1, 17]: 100 to 1000 nM
- IC50 [2, 18]: 20 nM
- IC50 [2, 19]: < 100 nM
- IC50 [3, 20]: > 1000 nM

Structure (SMILES): COc1ccc2cc1C(=O)NCC1=CC=C(S1)c1ncnc3c1SC(=C3)c1cnc(OC)c(c1)NS2(=O)=O [compound 97]
- IC50 [1, 21]: 62 nM
- IC50 [1, 17]: < 100 nM
- IC50 [2, 19]: 100 to 1000 nM
- IC50 [3, 20]: > 1000 nM

Structure (SMILES): COc1ncc2cc1NS(=O)(=O)c1ccc(Cl)c(c1)C(=O)NCC1=CC=C(S1)c1ncnc3c1SC2=C3 [compound 98]
- IC50 [1, 21]: 13 nM
- IC50 [1, 17]: < 100 nM
- IC50 [2, 18]: 37 nM
- IC50 [2, 19]: < 100 nM
- IC50 [3, 20]: > 1000 nM

Structure (SMILES): COc1ncc2cc1NS(=O)(=O)c1cccc(c1)C(=O)NC[C@H]1CCN(C1)c1ncnc3c1SC2=C3C [compound 99]
- IC50 [1, 21]: 53 nM
- IC50 [1, 17]: < 100 nM
- IC50 [2, 18]: 43 nM
- IC50 [2, 19]: < 100 nM
- IC50 [3, 20]: > 1000 nM

Structure (SMILES): COc1ccc2cc1C(=O)NCC1=CC=C(S1)c1ncnc3c1SC(=C3C)c1cnc(OC)c(c1)NS2(=O)=O [compound 100]
- IC50 [1, 21]: 31 nM
- IC50 [1, 17]: < 100 nM
- IC50 [2, 18]: 3.3 nM
- IC50 [2, 19]: < 100 nM
- IC50 [3, 20]: > 1000 nM

Structure (SMILES): COc1ncc2cc1NS(=O)(=O)c1cccc(c1)C(=O)NCC1=CC=C(S1)c1ccnc3c1SC2=C3C [compound 101]
- IC50 [1, 21]: 21 nM
- IC50 [1, 17]: < 100 nM
- IC50 [2, 18]: 26 nM
- IC50 [2, 19]: < 100 nM
- IC50 [3, 20]: > 1000 nM

Structure (SMILES): COc1ncc2cc1NS(=O)(=O)c1ccc(Cl)c(c1)C(=O)NCC1=CC=C(S1)c1ccnc3c1SC2=C3C [compound 102]
- IC50 [1, 21]: 9.5 nM
- IC50 [1, 17]: < 100 nM
- IC50 [2, 18]: 0.1 nM
- IC50 [2, 19]: < 100 nM
- IC50 ([3]; read-out: mTOR IC50 (in parentheses)): 28 nM
- IC50 [3, 20]: < 100 nM
